Measurements as given in patent US20240254093A1, “GPR35 Agonist Compounds” (Heptares Therapeutics Limited, priority 2021, published 2024).
Where two headings read alike, the source gives them in different places. Values belong to the molecule of their own block, whether it stands above or below them.

Experiments:
[1] = target: T1, GPR35 (Homo sapiens (Human), UniProt Q9HC97); conditions: reported in US20130316985; read-out: EC50 (weak agonist activity at GPR35); cited from earlier work
Target sequence in this assay (Q9HC97 whole entry, species assumed): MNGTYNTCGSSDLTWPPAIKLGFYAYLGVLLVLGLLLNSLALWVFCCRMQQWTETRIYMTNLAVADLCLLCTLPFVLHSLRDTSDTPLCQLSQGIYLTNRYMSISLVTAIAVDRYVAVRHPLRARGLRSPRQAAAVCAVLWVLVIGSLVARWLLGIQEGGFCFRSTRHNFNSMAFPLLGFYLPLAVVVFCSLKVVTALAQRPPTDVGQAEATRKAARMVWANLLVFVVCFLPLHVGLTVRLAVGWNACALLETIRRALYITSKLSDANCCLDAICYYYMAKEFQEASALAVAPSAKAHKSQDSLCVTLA

[2] = tested on: major human CYPs, including CYP3A4; experiment: drug interaction potential for major human CYPs; format: in vitro ADME
[3] = target: T1, GPR35; experiment: selectivity for GPR35 / off-target effects
Target sequence in this assay (Q9HC97 whole entry, species assumed): as above

[4] = tested on: TNBS visceral pain; experiment: TNBS mouse visceral pain model; format: in vivo
[5] = target: Human GPR35a isoform (Homo sapiens (Human), UniProt Q9HC97); experiment: Human GPR35a isoform binding (radioligand, HEK293f membranes); conditions: HEKf cell membranes overexpressing GPR35a isoform; read-out: Human GPR35 Ki
Experimental: Overexpression of Human GPR35a Baculovirus in HEK293f cells at a cell density of 2.5×10^6 cells/mL and a multiplicity of infection of 2.5 over 24 h in Pro293 (Lonza)+5% FBS, 1% Glutamax and 0.4% Pen/Strep. Cells harvested and centrifuged at 2500 RPM for 10 mins at 4° C. The supernatant was then poured off and the pellet stored at −80° C. The pellet was defrosted and re-suspended in 15 mL of homogenising buffer (20 mM HEPES, 10 mM EDTA, pH 7.4). Then homogenised in mechanical homogeniser (VMR) for 10 seconds. The membrane was centrifuged in centrifuge tubes at 40,000 g for 15 mins at 4° C. The supernatant was poured away and re-suspended in 15 mL of homogenising buffer. Homogenised for 20 seconds. The membrane was centrifuged at 40,000 g for 45 mins at 4° C. The membrane was re-suspended in 3 mL of storage buffer (20 mM HEPES, 0.1 mM EDTA, pH 7.4) mixing well. The resulting membranes were then stored at −80°. GPR35 cell membrane homogenates were re-suspended in the binding buffer (50 mM TRIS+10 mM MgCl2 pH 7.4) to a final assay concentration of 5 ug/well. Test compounds were diluted in dimethylsulphoxide (DMSO (Sigma Aldrich, UK)), to form a 10 point ½ log concentration curve. Test compounds were added per plate, followed by 7 nM 3H-27966. 0.1 uM FAC Lodoxamide was added in order to allow non-specific binding to be calculated. Finally, membrane was added to each well on the plate. After 60 min incubation at room temperature, membranes were filtered onto a unifilter, 96-well white microplate with bonded GF/B filter, pre-soaked in ddH20, with a TomTec cell harvester, and washed 5 times with distilled water. Plates were dried prior to 50 ul/well scintillant added, sealed and radioactivity measured using a MicroBeta analyser. IC50 values were derived from the inhibition curve and affinity constant (Ki) values were calculated using the Cheng-Prussoff equation, where; pKi=−log 10 Ki.
(§1) • Ki values derived from concentration response analysis in HEKf cell membranes overexpressing GPR35a isoform. EC50 values derived from concentration response analysis in HT-29 cell line endogenously expressing human GPR35.

[6] = tested on: LPS challenge; experiment: acute rat and mouse LPS challenge; format: in vivo
[7] = target: T1, GPR35; experiment: Label-free DMR functional assay in HT-29 cells; format: cell-based; conditions: for EC50: HT-29 cell line endogenously expressing human GPR35, DMR normalised to Lodoxamide
Experimental: HT-29 cells (ATCC HTB-38) kept in continuous culture in McCoys (Thermo 16600082) supplemented with 10% FBS. Day prior to assay, cells harvested with TrypLE (Gibco12604-013), and plated at 20 k/well in culture media in a total volume of 50 ul in Corning EPIC 384 well plates (5040) overnight 37° C. 5% CO2. On the day of assay, cell media was removed and replaced with assay buffer (HBSS+20 mM HEPES pH7.4) and reincubated for 1 h. Compounds were prepared in 100% DMSO in ECHO LDV 384 source plates. Cell plates were read on an EPIC plate reader at room temperature for 15 mins, read paused, and cell plate added to LabCyte ECHO 550 for addition of 50 nl per well compound by acoustic transfer. Plates were immediately placed back into the EPIC reader, read unpaused and Dynamic Mass Redistribution measured for 60 minutes. Raw data was analysed by EPIC Analyser software and max peak taken per concentration to enable EC50 determination. All raw DMR data was normalised to Lodoxamide and buffer corrected.
as §1
Target sequence in this assay (Q9HC97 whole entry): as the sequence (Q9HC97 whole entry, species assumed) above

[8] = tested on: PGE2-induced fluid secretion; experiment: PGE2-induced fluid secretion; format: in vivo; conditions: preclinical species
[9] = tested on: indomethacin ileitis and barrier permeability; experiment: indomethacin ileitis and barrier permeability; format: in vivo; conditions: preclinical species
[10] = target: T1, GPR35; conditions: human vs rat GPR35; cited from earlier work
Target sequence in this assay (Q9HC97 whole entry): as the sequence (Q9HC97 whole entry, species assumed) above

Human GPR35a isoform, sequence (Q9HC97 whole entry, canonical isoform): as the sequence (Q9HC97 whole entry, species assumed) above

Compound: Nc1ccc(O)c(C(=O)O)c1 [5-aminosalicylic acid]
EC50 [1]: ~3000 nM

Compound: O=C(NCc1ccccc1)c1ccc(-c2cc(Nc3c(O)c(=O)c3=O)cc(-c3nn[nH]n3)c2)cc1 [Example 5, N-benzyl-3′-((2-hydroxy-3,4-dioxocyclobut-1-en-1-yl)amino)-5′-(1H-tetrazol-5-yl)-[1,1′-biphenyl]-4-carboxamide]
drug interaction potential for the major human CYPs [2]: very low drug interaction potential
off-target effects [3]: no off-target effects have been observed
selectivity for GPR35 [3]: strong selectivity
pharmacology in TNBS mouse visceral pain model [4]: showed pharmacology
Ki [5]: 0.08 nM
pharmacology in acute rat and mouse LPS challenge [6]: showed pharmacology
EC50 [7]: 0.52 nM
functional potency for GPR35 higher than Cromolyn ([7]; relative to Cromolyn): about 500 times
pharmacology in PGE2-induced fluid secretion [8]: showed pharmacology
pharmacology in indomethacin ileitis and barrier permeability [9]: showed pharmacology

Compound: O=C(O)c1cc(/N=N/c2ccc(S(=O)(=O)Nc3ccccn3)cc2)ccc1O [sulfasalazine]
EC50 [1]: ~3000 nM

Compound: O=C(O)c1cc(=O)c2ccccc2[nH]1 [kynurenic acid]
potency at the human receptor lower compared to the rat ortholog [10]: at least 100 fold

Ki [5]: 0.46 nM
EC50 [7]: 0.83 nM
Compound: COc1cccc(-c2cc(Nc3c(O)c(=O)c3=O)cc(-c3nn[nH]n3)c2)c1 [Example 9, 3-hydroxy-4-((3′-methoxy-5-(1H-tetrazol-5-yl)-[1,1′-biphenyl]-3-yl)amino)cyclobut-3-ene-1,2-dione]

Compound: COCCNC(=O)c1ccc(-c2cc(Nc3c(O)c(=O)c3=O)cc(-c3nn[nH]n3)c2)cc1 [Example 7, 3′-((2-hydroxy-3,4-dioxocyclobut-1-en-1-yl)amino)-N-(2-methoxyethyl)-5′-(1H-tetrazol-5-yl)-[1,1′-biphenyl]-4-carboxamide]
Ki [5]: 2.77 nM
EC50 [7]: 4.2 nM

Ki [5]: 0.16 nM
EC50 [7]: 2.02 nM
Compound: O=c1c(O)c(Nc2cc(-c3ccc(C(F)(F)F)cc3)cc(-c3nn[nH]n3)c2)c1=O [Example 15, 3-((5-(1H-tetrazol-5-yl)-4′-(trifluoromethyl)-[1,1′-biphenyl]-3-yl)amino)-4-hydroxycyclobut-3-ene-1,2-dione]
